According to patent publication US7482144B2, “Method for the production of xylitol” (priority 2000, dated 2009):

Tested on: β-xylosidase
Test: Possible inhibiting effect of xylitol on β-xylosidase
Assay type: biochemical
Description: 300 nkat concentrated β-xylosidase was incubated with 0, 1, 5, 10, 50, 100, 200 and 300 g/l of xylitol at 28° C. Samples were taken after 0, 0.5, 1, 2, 4, 6, 8, 24, 48 and 72 hours incubation and stored at −20° C. The activity of β-xylosidase was measured as described in Poutanen and Puls (1988) Appl. Microbiol. Biotechnol. 28:425-432. The activity of β-xylosidase remained stable in all the samples taken and thus it is not inhibited by xylitol.

`OC[C@@H](O)[C@H](O)[C@@H](O)CO` [xylitol] was tested, and the “Inhibition of β-xylosidase activity by xylitol” value (300 nkat β-xylosidase, 0-300 g/l xylitol, 28° C., 0-72 hours) was “not inhibited” and the “Inhibition of xylanolytic activity by xylitol” value (studies conducted so far) was “has not been shown to inhibit”.
